Measurements taken from patent publication US5939578A, “Vasomolol: an ultra short-acting and vasodilatory vanilloid type β - adrenoceptor antagonist” (Lin; Tong-Ho, priority 1996, dated 1999).

Columns and labels:
[1] = biological target: T1, β-adrenoceptor, ventricular membranes (Sus scrofa, UniProt Q28998); experiment: Competition for [3H]-DHA binding to ventricular membranes; design: species or system pig
T1 construct: tissue local slaughterhouse; host or cells: pig heart ventricular membranes
T1 sequence (Q28998 whole entry): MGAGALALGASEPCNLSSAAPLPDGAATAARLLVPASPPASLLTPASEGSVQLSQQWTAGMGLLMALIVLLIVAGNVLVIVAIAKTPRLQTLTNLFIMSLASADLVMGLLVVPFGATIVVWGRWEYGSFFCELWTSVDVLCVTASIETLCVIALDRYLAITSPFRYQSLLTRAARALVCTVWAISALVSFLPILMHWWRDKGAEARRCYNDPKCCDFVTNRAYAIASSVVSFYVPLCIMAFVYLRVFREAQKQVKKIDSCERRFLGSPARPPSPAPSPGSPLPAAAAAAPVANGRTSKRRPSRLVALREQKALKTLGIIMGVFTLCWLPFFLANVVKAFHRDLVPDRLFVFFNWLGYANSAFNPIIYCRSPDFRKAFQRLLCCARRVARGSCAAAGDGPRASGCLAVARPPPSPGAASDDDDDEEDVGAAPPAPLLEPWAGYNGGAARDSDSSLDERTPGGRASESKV
Procedure: Pig's heart were obtained from a local slaughterhouse immediately after the animals had been killed and transported to our laboratory in ice-cold buffer (250 mM sucrose/50 mM Tris [hydroxymethyl] aminomethane HCl/1 mM magnesium chloride, pH 7.4). Various heart tissues were removed and prepared as detailed as described in Cardiovasc. […] In the test for receptor binding, the ventricles were placed in ice-cold buffer and all subsequent procedures were carried out at 4° C. The tissue was homogenised in 20 volumes of TE buffer (10 mmole.litre^-1 Tris-HCl, 1 mmole.litre^-1 EDTA, 0.1 mmole.litre^-1 ascorbic acid, pH 7.4) with three 12-s pulses using a Polytron homogenizer (Kinematica, Model PT 3000, Switzerland). The homogenate was filtered with pressure through muslin and the filtrate centrifuged for 10 min at 1000 g to remove connective tissue, unbroken cells and cell debris.
This membrane preparation has been described in Biochem. Biophys. Acta. […] The binding assay of [^3 H]-DHA was carried out as described in Biochem. Biophys. Res. Commun. […] [^3 ]-DHA and ventricular membranes (200-300 μg) were incubated for 60 min at 25° C. with and without the addition of 1 μM alprenolol, in 75 mM Tris-HCI buffer comprising MgCl2 25 mM, to make a final volume of 250 μl. In competitive binding experiments, the competing agent was added directly to the incubation mixture. The incubation was terminated by addition of 1 ml of ice-cold assay buffer followed by immediate filtration through Whatman GF/C glass fiber filters supported on a 12-port filter manifold (Millipore). The filters were immediately washed three times with 5 ml of ice-cold assay buffer and dried in an oven at 60° C. for 2 hr prior to adding 5 ml of Triton-toluene based scintillation fluid.
In each experiment, non-specifically bound [^3 H]-DHA was determined by incubating membrane protein and [^3 H]-DHA with 1 μM alprenolol. Specific binding was thus obtained by deducing this value from the total binding of [^3 H]-DHA for each sample.
All incubations were performed as described in the method section. Data shown are the means of three independent duplicate determinations.

[2] = system: β-adrenergic receptor; experiment: β-blockade and duration of action: inhibition of (-)isoproterenol-induced tachycardia during and after infusion; type: in vivo, pentobarbital-anesthetized rats
Procedure: Vasomolol (100 μg/kg/min) was infused consecutively into a femoral vein in pentobarbital-anesthetized rats. Each perfusion was maintained for 60 min. Before and during the infusion of vasomolol and esmolol, at 10-min intervals, bolus i.v. injections of (-) isoproterenol (0.5. μg/kg) were administered to assess the level of β-blockade. (-) lsoproterenol injections were also continued for 60 min. after termination of the highest dose of vasomolol and esmolol to assess the duration of β-blockade reported in J. Pharm. Exp. Ther. 237, 912, 1986 (by Quon, C. Y. et al.). The percentage of inhibition of the (-)isoproterenol-induced tachycardia parameter of β-blockade--was calculated during and after infusions of vasomolol.
isoproterenol (0.5 μg/kg)
vasomolol (0.5, 1.0, 3.0 mg/kg)

order of potency inhibiting [3H]-DHA binding ([1]; in words): (-) propranolol>>vasomolol=esmolol
IC50 ([1]; mean±S.E.M.): 4.7 ± 1.5 µM
SMILES: CCOC(=O)c1ccc(OCC(O)CNC(C)(C)C)c(OC)c1 (centres unmarked) [Vasomolol]
onset of β-blockade to steady-state level ([2]; after initiating each infusion rate, isoproterenol 0.5 μg/kg): ≤ 10 min
time required for 50% recovery ([2]; after termination of infusion, mean±S.E.M.): 9.5 ± 1.0 min
disappearance of β-blockade after termination of infusion ([2]; in words): disappeared rapidly after the termination of infusion
